The source of these data is patent publication US7326721B2 (Hypnion, Inc., priority 2003, dated 2008).

Series [1] has as its target T1, M1 muscarinic receptor (Homo sapiens, UniProt P11229).
T1 sequence (P11229 1-460): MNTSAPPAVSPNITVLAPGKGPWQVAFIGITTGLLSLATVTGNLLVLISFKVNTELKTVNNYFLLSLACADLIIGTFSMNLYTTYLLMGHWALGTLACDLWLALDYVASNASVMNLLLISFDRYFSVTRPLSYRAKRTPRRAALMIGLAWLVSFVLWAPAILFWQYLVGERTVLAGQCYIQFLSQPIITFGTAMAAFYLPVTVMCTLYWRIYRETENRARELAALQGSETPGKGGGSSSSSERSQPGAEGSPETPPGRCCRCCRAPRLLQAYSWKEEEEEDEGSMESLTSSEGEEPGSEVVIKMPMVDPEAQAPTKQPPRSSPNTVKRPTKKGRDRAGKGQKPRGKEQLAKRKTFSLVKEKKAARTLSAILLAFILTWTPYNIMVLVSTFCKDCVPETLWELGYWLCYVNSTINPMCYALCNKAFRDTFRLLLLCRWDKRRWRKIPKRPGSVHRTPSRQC
Set-up: purchased PerkinElmer, Inc., Wellesley, Mass; host or cells: CHO cells. To be noted: reference compounds; read-out: Ki of reference compounds, M1 binding assay; cited from earlier work.

Another series deals with T2, H1 histamine receptor (Bos taurus, UniProt P30546).
T2 construct: the receptors were obtained from bovine cerebellar membrane tissue; from tissue; host or cells: bovine cerebellar membranes
T2 sequence (P30546 whole entry): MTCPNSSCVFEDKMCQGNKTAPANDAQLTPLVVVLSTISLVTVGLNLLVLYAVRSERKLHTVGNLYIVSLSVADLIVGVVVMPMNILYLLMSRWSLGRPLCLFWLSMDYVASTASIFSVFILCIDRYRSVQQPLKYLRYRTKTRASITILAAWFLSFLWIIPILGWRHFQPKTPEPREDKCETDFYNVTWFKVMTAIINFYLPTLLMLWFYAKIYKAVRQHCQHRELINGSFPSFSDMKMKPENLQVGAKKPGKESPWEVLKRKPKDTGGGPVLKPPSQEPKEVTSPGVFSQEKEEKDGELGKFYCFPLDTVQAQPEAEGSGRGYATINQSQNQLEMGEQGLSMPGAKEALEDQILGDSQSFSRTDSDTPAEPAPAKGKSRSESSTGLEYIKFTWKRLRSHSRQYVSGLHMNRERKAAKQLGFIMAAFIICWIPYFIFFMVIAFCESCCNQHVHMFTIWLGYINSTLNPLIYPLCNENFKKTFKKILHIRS
Kind of series: Histamine H1 competitive binding assay ([3H]pyrilamine). Set-up: species or system bovine. Particulars: bovine receptor; read-out: H1 binding.

Series [2] deals with T1, M1 muscarinic receptor. The series can be described thus: Muscarinic M1 binding assay ([3H]-scopolamine, N-methyl chloride).
The target in another series is T3, M2 muscarinic receptor (Homo sapiens, UniProt P08172).
T3 sequence (P08172 1-466): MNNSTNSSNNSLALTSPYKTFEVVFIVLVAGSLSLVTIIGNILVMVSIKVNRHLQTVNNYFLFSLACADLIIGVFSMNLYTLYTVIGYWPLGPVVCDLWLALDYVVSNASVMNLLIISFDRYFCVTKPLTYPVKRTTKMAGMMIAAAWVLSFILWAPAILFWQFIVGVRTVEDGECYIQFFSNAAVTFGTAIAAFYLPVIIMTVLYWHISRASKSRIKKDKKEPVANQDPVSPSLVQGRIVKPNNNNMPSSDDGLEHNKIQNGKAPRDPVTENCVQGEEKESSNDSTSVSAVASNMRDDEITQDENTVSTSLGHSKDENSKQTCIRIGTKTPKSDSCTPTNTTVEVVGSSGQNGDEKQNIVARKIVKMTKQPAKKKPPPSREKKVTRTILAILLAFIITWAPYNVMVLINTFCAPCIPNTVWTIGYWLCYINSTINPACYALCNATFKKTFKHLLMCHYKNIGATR
The series can be described thus: Muscarinic M2 binding assay.

A further series addresses M3 muscarinic receptor (Homo sapiens, UniProt P20309). Kind of series: Muscarinic M3 binding assay.
In series [3] the target is Adrenergic, Alpha 1, Non-selective. Kind of series: Table 12 panel: Adrenergic, Alpha 1. It is filed as binding. To be noted: read-out: α1 binding.
Series [4] addresses Adrenergic, Alpha 2, Non-selective. Kind of series: Table 12 panel: Adrenergic, Alpha 2. It is filed as binding. To be noted: read-out: α2 binding.
A further series deals with human H1 receptor (Homo sapiens, UniProt P35367). Kind of series: H1(hR) binding (Table 28). The method, then:
(§1) The comparative data is shown in Table 28, unless otherwise noted, binding was measured with the bovine receptors, H1(hR) is the human H1 receptor, 5HT2a (h) is the human 5HT2a receptor. Binding numbers are presented in nM values.

The target in a further series is human 5HT2a receptor (Homo sapiens, UniProt P28223). Kind of series: 5HT2a (h) binding (Table 28).
human 5HT2a receptor, sequence (P28223 whole entry): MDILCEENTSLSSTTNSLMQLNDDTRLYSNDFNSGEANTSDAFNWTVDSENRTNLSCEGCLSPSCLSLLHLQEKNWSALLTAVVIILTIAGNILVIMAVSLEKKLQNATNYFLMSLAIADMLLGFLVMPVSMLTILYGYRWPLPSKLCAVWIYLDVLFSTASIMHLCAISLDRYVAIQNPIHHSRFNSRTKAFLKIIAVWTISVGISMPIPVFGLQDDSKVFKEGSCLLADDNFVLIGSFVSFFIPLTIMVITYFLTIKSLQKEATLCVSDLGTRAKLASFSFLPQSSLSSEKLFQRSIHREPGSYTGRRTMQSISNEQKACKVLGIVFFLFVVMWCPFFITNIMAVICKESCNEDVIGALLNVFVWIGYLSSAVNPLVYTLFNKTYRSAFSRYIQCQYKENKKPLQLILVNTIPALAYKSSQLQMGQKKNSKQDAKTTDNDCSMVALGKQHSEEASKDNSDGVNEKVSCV
Another series concerns the target Dopamine, D1 (UniProt P21728). The series can be described thus: Dopamine, D1 (human recombinant) binding assay.
Another series concerns the target 5HT2a (rat) (Rattus norvegicus, UniProt P14842). Kind of series: 5HT2a (rat) binding (Table 28). The method, then:
as §1

The next series addresses hERG (Homo sapiens, UniProt Q12809).
A further series deals with Wistar rats. The series can be described thus: Acetic acid-induced abdominal spasm test in the rat. It is filed as in vivo. To be noted: oral 100 mg/kg. The method, then:
(§2) The objective of this example was to determine the analgesic activity of HY-2901 (Also referred to herein as Compound 49a) following oral administration. Analgesic activity was assessed abdominal spasm test in the rat and mouse. Analgesic activity is also assessed using the tail clip test in the mouse, tail flick test in the rat, Randall-Selitto test in the rat and comparisons are made with a vehicle control group. Reference compounds ASA (acetylsalicylic acid) and morphine are also included for comparison.
(§3) The tail clip and tail flick test provide useful information about the central analgesic activity of the test article. The Randall-Selitto test provides information on the compound's ability to modify a hyperalgesic state and the abdominal spasm test provides information on the peripheral analgesic activity of the test article. The test article is administered by oral gavage, this being the intended clinical route of administration. The dose levels employed are expected to encompass the efficacy dose and provide an adequate safety margin.
(§4) All formulations were prepared on each day of dosing. The test article (HY-2901) was formulated in 0.25% (w/v) MC at the highest concentration required. Lower doses were obtained by serial dilution of the highest concentration using 0.25% (w/v) MC. The reference compound, acetylsalicylic acid, was formulated in 0.25% (w/v) MC at the required concentrations. Brewer's yeast was formulated in water for injection at the required concentration. Acetic acid was diluted with water for injection to provide the required concentration for administration.
(§5) An adequate number of male Crl:CD-I(ICR)BR mice and Wistar rats were obtained from Charles River (UK) Ltd., Margate, Kent. The mice were approximately 4 weeks of age and weigh between 18 and 22 g on arrival. The rats were approximately 5 weeks of age and weigh between 150 and 170 g on arrival. The age and weight of the animals at the start of the study was documented in the raw data and final report,
Each animal received a single administration of vehicle, test article or reference compound by oral gavage, using a constant dose volume […]. Individual dose volumes were based on individual body weights obtained on the day of dosing.
Forty-five minutes following oral administration each animal received a 1 mL intraperitoneal injection of 1% acetic acid. Animals were immediately placed into individual observation chambers and the number of abdominal spasms elicited over the subsequent 25-minute period was recorded.

The test system of a further series is Crl:CD-I(ICR)BR mice. Kind of series: Acetic acid-induced abdominal spasm test in the mouse. It is filed as in vivo. The method, then:
as §2, §3, §4, §5
Each animal received a single administration of vehicle, test article or reference compound by oral gavage, using a constant dose volume 10 mL/kg. Individual dose volumes were based on individual body weights obtained on the day of dosing.
Forty-five minutes following oral administration each animal received a 0.25 mL intraperitoneal injection of 0.5% acetic acid. Animals were immediately placed into individual observation chambers and the number of abdominal spasms elicited over the subsequent 25-minute period was recorded.

In the next series the test system is adult male Wistar rats. Kind of series: SCORE-2000 sleep-wakefulness, locomotor activity and body temperature monitoring. It is filed as in vivo, rat.
In series [5] the target is Dopamine, D1 (human recombinant) (UniProt P14416). The series can be described thus: Dopamine D2 binding assay (printed as D1 in b555). The method, then: In vitro binding assays are used to determine H1 binding (i.e., primary target binding) and M1, M2 and M3 binding (i.e., off target binding). […] Similar assays are performed with H1 and dopamine receptors (D1 and D2), and with H1 and adrenergic receptors (α1 and α2).
Dopamine, D1 (human recombinant) binding assay was performed according to published procedures. See, e.g., Jarvie, et al. J. Recept Res., 13(1–4): 573–90 (1993); and Gundlach, et al. Life Sciences, 35(19): 1981–8 (1984) with modifications

Several values for one entry are separate records, joined by “and”; a condition that tells them apart may be missing. Identical values can stand only once. Like-named read-outs stand apart in the source and are kept apart here.

hERG, sequence (Q12809 whole entry): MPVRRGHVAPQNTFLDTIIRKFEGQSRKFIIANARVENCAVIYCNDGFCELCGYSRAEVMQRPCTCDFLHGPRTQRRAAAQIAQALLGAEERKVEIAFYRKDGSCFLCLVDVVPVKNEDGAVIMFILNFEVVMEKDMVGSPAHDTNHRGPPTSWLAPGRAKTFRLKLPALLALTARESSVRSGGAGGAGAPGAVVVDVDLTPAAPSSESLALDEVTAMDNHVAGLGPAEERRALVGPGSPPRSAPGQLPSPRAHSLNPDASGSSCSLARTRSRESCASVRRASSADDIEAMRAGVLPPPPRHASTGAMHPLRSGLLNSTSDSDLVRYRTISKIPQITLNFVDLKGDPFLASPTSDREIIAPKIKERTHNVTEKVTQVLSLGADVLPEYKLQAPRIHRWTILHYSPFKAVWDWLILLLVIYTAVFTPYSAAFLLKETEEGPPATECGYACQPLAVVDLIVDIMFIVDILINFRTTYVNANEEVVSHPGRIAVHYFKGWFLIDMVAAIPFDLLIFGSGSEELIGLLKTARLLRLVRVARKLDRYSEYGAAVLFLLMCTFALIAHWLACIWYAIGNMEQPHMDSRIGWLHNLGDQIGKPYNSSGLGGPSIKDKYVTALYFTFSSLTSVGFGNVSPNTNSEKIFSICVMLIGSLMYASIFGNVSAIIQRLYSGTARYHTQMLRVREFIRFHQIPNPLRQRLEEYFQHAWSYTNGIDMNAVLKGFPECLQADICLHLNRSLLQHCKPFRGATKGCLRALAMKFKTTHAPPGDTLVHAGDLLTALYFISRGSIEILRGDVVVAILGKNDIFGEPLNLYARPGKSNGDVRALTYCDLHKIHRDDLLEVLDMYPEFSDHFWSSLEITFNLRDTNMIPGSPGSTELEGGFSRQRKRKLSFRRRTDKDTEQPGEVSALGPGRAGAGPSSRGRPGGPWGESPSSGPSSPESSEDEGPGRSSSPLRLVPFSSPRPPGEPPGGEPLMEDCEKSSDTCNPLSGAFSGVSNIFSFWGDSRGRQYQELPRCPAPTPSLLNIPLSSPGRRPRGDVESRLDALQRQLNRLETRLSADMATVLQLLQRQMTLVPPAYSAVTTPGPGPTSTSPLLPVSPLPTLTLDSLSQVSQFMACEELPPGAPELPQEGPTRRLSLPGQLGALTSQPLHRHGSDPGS
human H1 receptor, sequence (P35367 whole entry): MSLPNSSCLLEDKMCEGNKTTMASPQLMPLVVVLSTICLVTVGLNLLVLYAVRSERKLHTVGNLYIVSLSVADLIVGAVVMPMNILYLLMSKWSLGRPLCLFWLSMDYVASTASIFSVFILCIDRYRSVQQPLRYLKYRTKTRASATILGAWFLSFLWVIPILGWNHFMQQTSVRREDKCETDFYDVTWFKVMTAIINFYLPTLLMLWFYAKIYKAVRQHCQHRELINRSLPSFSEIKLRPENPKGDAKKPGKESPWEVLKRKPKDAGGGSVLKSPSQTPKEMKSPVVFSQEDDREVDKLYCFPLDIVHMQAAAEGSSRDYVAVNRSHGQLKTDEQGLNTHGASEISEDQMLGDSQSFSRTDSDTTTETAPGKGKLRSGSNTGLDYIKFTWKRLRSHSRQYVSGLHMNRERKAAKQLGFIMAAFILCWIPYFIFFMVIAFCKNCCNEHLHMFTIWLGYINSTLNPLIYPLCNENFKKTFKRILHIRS
5HT2a (rat), sequence (P14842 whole entry): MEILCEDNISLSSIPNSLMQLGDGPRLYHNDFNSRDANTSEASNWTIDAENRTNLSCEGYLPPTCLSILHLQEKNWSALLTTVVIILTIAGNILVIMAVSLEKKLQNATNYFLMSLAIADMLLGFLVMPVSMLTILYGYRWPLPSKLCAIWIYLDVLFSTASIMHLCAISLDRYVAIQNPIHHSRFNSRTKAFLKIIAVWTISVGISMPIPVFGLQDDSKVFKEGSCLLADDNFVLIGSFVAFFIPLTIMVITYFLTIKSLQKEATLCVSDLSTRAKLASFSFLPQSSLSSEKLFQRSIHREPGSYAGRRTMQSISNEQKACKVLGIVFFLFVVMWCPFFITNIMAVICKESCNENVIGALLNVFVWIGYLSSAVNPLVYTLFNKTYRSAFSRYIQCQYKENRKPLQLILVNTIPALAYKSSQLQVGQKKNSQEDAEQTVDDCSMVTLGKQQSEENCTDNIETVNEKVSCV
M3 muscarinic receptor, sequence (P20309 whole entry): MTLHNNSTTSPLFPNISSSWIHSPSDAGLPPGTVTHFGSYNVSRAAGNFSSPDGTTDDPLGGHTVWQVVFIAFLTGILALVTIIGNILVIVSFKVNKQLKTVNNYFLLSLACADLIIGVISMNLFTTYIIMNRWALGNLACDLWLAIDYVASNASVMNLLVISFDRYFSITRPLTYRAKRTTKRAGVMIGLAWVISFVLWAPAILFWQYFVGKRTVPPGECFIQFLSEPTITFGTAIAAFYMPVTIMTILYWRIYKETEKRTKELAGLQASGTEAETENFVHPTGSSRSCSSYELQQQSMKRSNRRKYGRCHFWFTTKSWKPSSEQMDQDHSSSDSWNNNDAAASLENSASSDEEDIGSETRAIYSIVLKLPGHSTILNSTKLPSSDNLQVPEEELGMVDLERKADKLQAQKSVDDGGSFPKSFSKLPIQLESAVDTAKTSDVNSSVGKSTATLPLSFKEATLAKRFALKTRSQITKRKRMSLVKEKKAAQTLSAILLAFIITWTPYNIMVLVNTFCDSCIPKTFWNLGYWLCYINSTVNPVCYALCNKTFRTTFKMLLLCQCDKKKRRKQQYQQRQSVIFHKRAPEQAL

For `C[N+]1(C)CCC(OC(=O)C(c2ccccc2)c2ccccc2)CC1` [4-DAMP methiodide], the Ki at M1 muscarinic receptor [1] is 0.27 nM.

For `COc1ccc2c(c1)COc1ccc(F)cc1C2=C1CCN(CC2(C(=O)O)CC2)CC1` [Compound 10519], the Ki on H1 histamine receptor was 19.8 nM; at M1 muscarinic receptor [2], > 10000 nM; at M2 muscarinic receptor it was > 10000 nM; on M3 muscarinic receptor, > 10000 nM; in series [3], > 10000 nM; in series [4], > 10000 nM. Moreover, the Ki on human H1 receptor was 34 nM; at human 5HT2a receptor, 541 nM; at Dopamine, D1, > 10000 nM; on 5HT2a (rat), 56 nM. Moreover, the HERG at hERG is 6.10%.

For `CC(=O)Oc1ccccc1C(=O)O` [ASA, acetylsalicylic acid, reference compound], in the series with Wistar rats, the “Group mean (=sd) number pf abdominal spasms recorded in a 25-minute period” value stood at 1 ± 2.3. The “Number of abdominal spasms recorded in a 25-minute period, individual animal data” value in the series on Wistar rats (100 mg/kg) is 0 (3×) and 1 (2×) and 6. In the series with Crl:CD-I(ICR)BR mice (oral 100 mg/kg), the “Group mean (±sd) number of abdominal spasms recorded in a 25 minute period” value is 29 ± 29.9. Also, the “Number of abdominal spasms recorded in a 25-minute period” value with Crl:CD-I(ICR)BR mice (oral, 100 mg/kg, individual animal data (animals 25-30)) was 17 and 8 and 45 and 82 and 1 and 23.

Consider `COc1ccc2c(c1)COc1ccc(F)cc1C2=C1CCN(CCCC(=O)O)CC1` [Compound 10520], for which, in the series on adult male Wistar rats, the “LUSB 3 mg/kg” value was determined as 4.9 ± 1.7. Moreover, in the series on adult male Wistar rats, the “LUSB 10 mg/kg” value turned out to be 10.0 ± 2.2. For the same compound, the “NREM cumul. 10 mpk” value in the series with adult male Wistar rats turned out to be 41 ± 8. Besides, the Ki was 22.5 nM at H1 histamine receptor; > 10000 nM at M1 muscarinic receptor [2]; > 10000 nM on M2 muscarinic receptor; > 10000 nM at M3 muscarinic receptor; 1090 nM in series [3]; > 10000 nM in series [4]. Moreover, the Ki at human H1 receptor is 43 nM; at human 5HT2a receptor it was 396 nM; at Dopamine, D1, > 10000 nM; in series [5] it was > 10000 nM; on 5HT2a (rat), 55.8 nM. The same compound showed an HERG on hERG (human, 10 µM, pH 7.4) of 56.00%.

Regarding `COc1ccc2c(c1)COc1ccc(F)cc1C2=C1CCN(CCC(=O)O)CC1` [Compound 10518], the “LUSB 3 mg/kg” value with adult male Wistar rats is recorded as 6.7 ± 2.3. Also, the “LUSB 10 mg/kg” value in the series with adult male Wistar rats turned out to be 7.9 ± 1.7. In addition, in the series on adult male Wistar rats, the “NREM cumul. 10 mpk” value came out at 46 ± 7. Besides, the Ki on H1 histamine receptor is 52.3 nM; on M1 muscarinic receptor [2], > 10000 nM; on M2 muscarinic receptor, > 10000 nM; in [3], 2850 nM; in series [4], > 10000 nM; on human H1 receptor it was 35 nM. The Ki was 422 nM at human 5HT2a receptor; > 10000 nM on Dopamine, D1; > 10000 nM in [5]; 197 nM on 5HT2a (rat). Besides, the HERG on hERG (human, 10 µM, pH 7.4) is 3.90%.
